This is an account of results in US4074049A, “Antithrombotic 1,3,4-thiadiazole” (The Dow Chemical Company, priority 1976, dated 1978).

Like-named read-outs stand apart in the source and are kept apart here.

For experiment [1], the system named is ADP induced platelet aggregation. Description: In vivo platelet aggregation measurement, filter occlusion technique (Broersma et al.). The following applies: 20 mg/kg, intravenous, after 4 hours. Also noted: species or system beagle dogs. How it is done: Measurement of platelet aggregation in vivo was carried out using the technique described by Broersma, et al., Thomb. diath. Haemorrhag. 29, 201 (1973). Such determinations are based upon the measurement of the blood pressure proximal to a filter with 53 micron openings through which arterial blood flows. Platelet aggregation partially obstructs the filter with time causing a change in the pressure which is proportional to the degree of platelet aggregation (thrombosis).
Fasted male beagle dogs were anesthetized with sodium pentobarbital (35 mg/kg), heparinized (16.5 μ/kg, i.v.) and tested for platelet function using aggregometry. Compounds were administered intravenously in solutions having the pH adjusted to 7.4. The solution was infused at a rate of 15.3 ml/min to total volume of 5 ml/kg of body weight. Thrombus formation was observed using the filter occlusion technique outlined above. Platelet count, hematocrit, blood pressure, and heart rate were also measured.

Another experiment deals with tobacco black shank. In words: Control of tobacco black shank, soil drench. In kind it is in vivo.
In experiment [2] the test system is ADP-induced emboli / platelet aggregation. In words: Protection of mice from ADP challenge (inclined screen test). In kind it is in vivo. To be noted: 60 mg/kg i.p.; ten mice; ADP i.v. one hour after compound. How it is done:
Emboli formed in the vascular system of mice in response to the administration of ADP cause a stroke-like response that prevents mice from staying on an inclined screen. To illustrate the platelet aggregation inhibition effect of the 1,3,4-thiadiazoles, ten mice were dosed by intraperitoneal injection with 60 mgs per kilogram of body weight of the compound 2,5-bis(2-(diethylamino)ethylthio)-1,3,4-thiadiazole di-p-toluenesulfonic acid salt (Example 3). One hour after compound administration, the mice were challenged with ADP (0.05 M mole/kg) by injection via the tail vein and placed on an inclined screen. Unprotected control mice not injected with thiadiazole were unable to maintain their position on the screen when given a similar injection of ADP.

For experiment [3], the system named is ADP-induced platelet aggregation. In words: In vitro inhibition of ADP-induced platelet aggregation (Born technique, optical density, platelet rich plasma). It is filed as cell-based, rat. The method, then:
Rat blood was collected into 3.0 percent trisodium citrate solution (1:10) by cardiac puncture undeer methoxyflurane anesthesia. The blood was centrifuged at 120 g for 10 minutes at room temperature and the supernatant platelet rich plasma was removed and diluted with lactated Ringer's solution containing the […] aggregation inhibiting agent (1.0:1.5). Samples of 1.0 ml were pipetted into plastic test tubes and incubated for three minutes. Plastic equipment was used for all procedures. The concentration of the thiadiazole compound in micromoles inhibiting ADP aggregation by 50 percent (IC50) was determined using changes in optical density as a indicium of platelet aggregation.

One may read the IC50 as the concentration that inhibits the measured activity by half.

On to `C1CN(CCSc2nnc(SCCN3CCOCC3)s2)CCO1` [2,5-bis-(2-(4-morpholinyl)ethylthio)-1,3,4-thiadiazole], for which the “reduction of ADP induced platelet aggregation in the dog” value in experiment [1] was 36%.

Regarding `CCN(CC)CCSc1nnc(N)s1` [Example 2, 2-amino-5-(2-(diethylamino)ethylthio)-1,3,4-thiadiazole], the “control and killing of tobacco black shank (in words)” value in the experiment on tobacco black shank is “effective in the control and killing of tobacco black shank”. Besides, the “control of the disease (tobacco black shank)” value in the experiment on tobacco black shank (solution of 25 ppm) worked out at 100%.

As to `CCN(CC)CCSc1nnc(SCCN(CC)CC)s1.Cc1ccc(S(=O)(=O)O)cc1.Cc1ccc(S(=O)(=O)O)cc1` [Example 3, 2,5-bis(2-(diethylamino)ethylthio)-1,3,4-thiadiazole di-p-toluenesulfonic acid salt], the “mice protected from ADP challenge and able to remain on the screen” value in experiment [2] is 40%.

Consider `C(CSc1nnc(SCCCN2CCOCC2)s1)CN1CCOCC1` [Example 1, 2,5-bis(3-(4-morpholinyl)-propylthio)-1,3,4-thiadiazole], for which the “activity relative to aspirin in the inhibition of ADP induced platelet aggregation” value in experiment [3] (compared with aspirin, conditions of this test) is “about twice as active as aspirin”. Further, the IC50 was 6.28 µM in experiment [3] (inhibits maximum ADP-induced platelet aggregation by 50%, rat platelet rich plasma, read-out: IC50 ADPmax) and 9.41 µM in experiment [3] (inhibits the speed of the platelet aggregation by 50%, rat platelet rich plasma, read-out: IC50 ADPslope).

Consider `CC(=O)Oc1ccccc1C(=O)O` [Aspirin, reference compound], for which the 50% inhibitory concentration (IC50) worked out at 12.8 µM in experiment [3] (Rattus norvegicus, Platelet, read-out: IC50 ADPmax) and 18.1 µM in experiment [3] (Rattus norvegicus, Platelet, read-out: IC50 ADPslope).
